The values that follow come from PMC6193938, “Characterization of a novel AICARFT inhibitor which potently elevates ZMP and has anti-tumor activity in murine models” (Scientific Reports, 2018).

In experiment [1] the test system is NCI-H1299. The experiment in a line: Low folate & high folate in vitro proliferation assay (Alamar Blue). The class given is cell-based. The conditions noted are these: Homo sapiens. The protocol: (§1) Cells lines were acquired from cell banks, see supplemental material, grown using the cell banks recommended culture conditions (Supplemental Table 3). In some experiments noted “low folate” the cells were washed and grown in folate free RPMI-1640 media (Gibco #27016-021) supplemented with 5 ml 1 M Hepes, 5 ml 100 mM Na pyruvate, 2.5 mg/ml glucose and 10% defined FBS (Hyclone #SH30070) per 500 mL media for 5–7 days to deplete intracellular folate levels prior to the start of the experiment. Where noted, cells were maintained in complete “high folate” RPMI-1640 media (ATCC #30-2001) with 10% defined FBS to contrast with the low folate conditions.
(§2) Cells were cultured using recommended culture conditions unless noted otherwise (Supplemental Table 3). Cells were plated, dosed with compound and incubated at 37 °C for approximately 2 doubling times as determined for each cell line. Cell Titer Glo (Promega) assay was used to measure proliferation according to manufacturer’s recommendations by measuring luminescence with Flexstation3 (Molecular Devices) with 500 ms integration time. […] The % response was fit to a four-parameter logistic equation using ACTIVITYBASE 4.0 to determine the absolute IC50 values.
(§3) For a limited number of cell lines, compound dosing was performed under high or low folate conditions with cell viability being determined with Alamar Blue rather than an ATP dependent assay. Cells were plated and treated as described above. Proliferation was measured using Alamar Blue Cell Viability Reagent (Invitrogen), and read after approximately 1.5–4 hours incubation at 37 °C on the Envision plate reader (Perkin Elmer) with excitation at 570 nm and emission at 585 nm. The % inhibition for each sample was calculated and fit as described above.

The test system of experiment [2] is MIA PaCa-2 (pancreas). The experiment is described as above. Type of experiment: cell-based. To be noted: Homo sapiens. The procedure:
as §1, §2, §3

Experiment [3] deals with A549 (lung). The description is as above. The conditions noted are these: Homo sapiens, low folate RPMI media. Type of experiment: cell-based. The protocol: as §1, §2, §3
Experiment [4] relates to HCT 116 (colon). The experiment is described as above. To be noted: Homo sapiens. Type of experiment: cell-based. The procedure: as §1, §2, §3
The subject of experiment [5] is A101D (melenoma). Described as above. The class given is cell-based. To be noted: Homo sapiens. The protocol:
as §1, §2, §3

The target in experiment [6] is T1, TRKB (Homo sapiens, UniProt Q16620).
T1 construct: purchased CEREP Panlabs (Eurofins)
The experiment is described as follows: CEREP protein kinase assay. The class given is biochemical.

Experiment [7] concerns the target T2, SIK (Homo sapiens, UniProt P57059).
T2 construct: purchased CEREP Panlabs (Eurofins)
The experiment in a line: CEREP protein kinase assay. The class given is biochemical.

Experiment [8] has as its target T3, IKKe (Homo sapiens, UniProt Q14164).
T3 construct: purchased CEREP Panlabs (Eurofins)
T3 sequence (Q14164 1-716): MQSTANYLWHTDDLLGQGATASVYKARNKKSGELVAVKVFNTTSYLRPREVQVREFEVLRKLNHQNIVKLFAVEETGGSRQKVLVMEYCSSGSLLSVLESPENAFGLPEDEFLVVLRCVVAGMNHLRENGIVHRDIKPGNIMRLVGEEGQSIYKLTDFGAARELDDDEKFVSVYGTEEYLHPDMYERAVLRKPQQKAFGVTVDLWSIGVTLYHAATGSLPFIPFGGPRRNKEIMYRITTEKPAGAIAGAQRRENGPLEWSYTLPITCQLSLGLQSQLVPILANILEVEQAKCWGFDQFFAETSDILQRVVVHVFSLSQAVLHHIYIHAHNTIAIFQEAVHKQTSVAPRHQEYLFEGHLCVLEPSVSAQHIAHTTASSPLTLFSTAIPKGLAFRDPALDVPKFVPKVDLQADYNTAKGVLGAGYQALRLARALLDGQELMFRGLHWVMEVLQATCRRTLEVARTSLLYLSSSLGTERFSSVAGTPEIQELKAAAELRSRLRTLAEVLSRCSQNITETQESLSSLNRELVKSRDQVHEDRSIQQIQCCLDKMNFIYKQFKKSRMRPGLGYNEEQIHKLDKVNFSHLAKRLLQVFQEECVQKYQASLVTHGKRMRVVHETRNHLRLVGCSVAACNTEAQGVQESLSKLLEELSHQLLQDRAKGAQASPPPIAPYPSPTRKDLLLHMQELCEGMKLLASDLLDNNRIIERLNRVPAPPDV
The experiment is described as follows: CEREP protein kinase assay. The class given is biochemical.

The target in experiment [9] is T4, EPHA3 (Homo sapiens, UniProt P29320).
T4 construct: purchased CEREP Panlabs (Eurofins)
T4 sequence (P29320 21-983): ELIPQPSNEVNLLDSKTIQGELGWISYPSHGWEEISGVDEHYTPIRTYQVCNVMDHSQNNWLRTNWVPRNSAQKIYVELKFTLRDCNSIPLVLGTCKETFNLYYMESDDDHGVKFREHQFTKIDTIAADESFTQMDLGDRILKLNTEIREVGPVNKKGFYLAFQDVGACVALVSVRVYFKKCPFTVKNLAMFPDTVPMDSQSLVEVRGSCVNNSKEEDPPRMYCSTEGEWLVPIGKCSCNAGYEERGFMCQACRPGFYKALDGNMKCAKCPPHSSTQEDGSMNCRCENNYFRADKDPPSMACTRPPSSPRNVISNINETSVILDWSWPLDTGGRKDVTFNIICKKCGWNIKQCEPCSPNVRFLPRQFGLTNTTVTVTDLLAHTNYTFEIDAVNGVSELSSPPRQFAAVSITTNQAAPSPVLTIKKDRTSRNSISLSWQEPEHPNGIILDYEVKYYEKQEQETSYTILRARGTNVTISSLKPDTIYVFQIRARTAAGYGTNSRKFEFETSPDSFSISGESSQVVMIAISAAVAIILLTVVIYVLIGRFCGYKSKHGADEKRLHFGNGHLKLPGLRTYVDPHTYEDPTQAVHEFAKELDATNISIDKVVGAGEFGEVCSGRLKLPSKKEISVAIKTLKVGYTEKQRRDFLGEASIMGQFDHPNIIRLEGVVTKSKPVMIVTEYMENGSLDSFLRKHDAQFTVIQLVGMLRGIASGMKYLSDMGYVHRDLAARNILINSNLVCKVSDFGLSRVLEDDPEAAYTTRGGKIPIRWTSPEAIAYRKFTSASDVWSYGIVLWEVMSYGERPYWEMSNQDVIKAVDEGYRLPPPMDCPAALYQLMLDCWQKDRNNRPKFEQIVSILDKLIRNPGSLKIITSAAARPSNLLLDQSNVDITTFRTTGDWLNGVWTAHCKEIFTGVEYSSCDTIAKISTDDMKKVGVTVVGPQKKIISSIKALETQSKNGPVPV
The experiment in a line: CEREP protein kinase assay. The class given is biochemical.

Setting [10] is: RPMI media, read-out: Alamar Blue GI50 Regular folate.
Setting [11] is: low folate RPMI media, read-out: Alamar Blue GI50 Low folate.

Where two headings read alike, the source gives them in different places.

T1 sequence (Q16620 32-822): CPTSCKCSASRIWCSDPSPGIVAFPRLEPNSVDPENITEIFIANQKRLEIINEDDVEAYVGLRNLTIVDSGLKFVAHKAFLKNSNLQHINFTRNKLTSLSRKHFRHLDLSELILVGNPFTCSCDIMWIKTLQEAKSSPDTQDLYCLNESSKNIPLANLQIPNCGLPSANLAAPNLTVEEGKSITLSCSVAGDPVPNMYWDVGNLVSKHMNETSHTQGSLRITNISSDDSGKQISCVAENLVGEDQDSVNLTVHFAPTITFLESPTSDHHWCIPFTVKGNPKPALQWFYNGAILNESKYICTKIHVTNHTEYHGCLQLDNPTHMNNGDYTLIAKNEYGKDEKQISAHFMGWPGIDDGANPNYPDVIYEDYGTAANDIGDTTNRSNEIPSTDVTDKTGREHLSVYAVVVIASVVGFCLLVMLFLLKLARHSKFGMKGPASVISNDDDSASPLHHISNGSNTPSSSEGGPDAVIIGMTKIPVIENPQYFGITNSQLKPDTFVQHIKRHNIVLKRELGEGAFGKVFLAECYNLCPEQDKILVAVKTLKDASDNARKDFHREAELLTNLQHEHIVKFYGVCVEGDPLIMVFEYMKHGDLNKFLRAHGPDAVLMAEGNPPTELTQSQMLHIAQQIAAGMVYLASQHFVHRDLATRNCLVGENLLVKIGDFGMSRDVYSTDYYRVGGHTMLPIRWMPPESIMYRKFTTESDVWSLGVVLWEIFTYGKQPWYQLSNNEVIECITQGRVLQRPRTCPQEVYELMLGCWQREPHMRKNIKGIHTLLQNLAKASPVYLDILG
T2 sequence (P57059 whole entry): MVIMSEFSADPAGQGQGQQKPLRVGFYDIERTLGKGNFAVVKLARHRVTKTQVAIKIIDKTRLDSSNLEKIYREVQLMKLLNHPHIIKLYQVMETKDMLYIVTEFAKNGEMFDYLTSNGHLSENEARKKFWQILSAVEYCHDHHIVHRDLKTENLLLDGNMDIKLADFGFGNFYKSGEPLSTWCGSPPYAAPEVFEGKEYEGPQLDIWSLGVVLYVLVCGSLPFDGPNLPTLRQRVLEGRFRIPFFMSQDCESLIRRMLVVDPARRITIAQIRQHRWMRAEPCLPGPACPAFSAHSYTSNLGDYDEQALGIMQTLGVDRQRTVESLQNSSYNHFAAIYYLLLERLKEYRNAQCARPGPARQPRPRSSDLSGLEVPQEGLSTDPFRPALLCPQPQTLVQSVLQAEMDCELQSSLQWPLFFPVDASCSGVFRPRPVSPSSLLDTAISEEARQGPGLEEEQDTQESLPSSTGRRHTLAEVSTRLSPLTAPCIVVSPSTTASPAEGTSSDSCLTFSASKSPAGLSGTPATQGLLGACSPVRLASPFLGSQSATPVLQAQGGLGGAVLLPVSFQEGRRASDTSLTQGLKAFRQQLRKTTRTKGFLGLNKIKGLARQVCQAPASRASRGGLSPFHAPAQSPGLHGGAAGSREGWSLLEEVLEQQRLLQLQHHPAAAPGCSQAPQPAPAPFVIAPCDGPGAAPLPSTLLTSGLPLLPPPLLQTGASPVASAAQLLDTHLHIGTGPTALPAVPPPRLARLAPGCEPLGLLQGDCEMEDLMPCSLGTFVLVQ

One may read the GI50 as the concentration that inhibits growth by half. One may read the inhibition as the relative decrease from the control value, in per cent. On to `O=c1[nH]ccc2cc(F)c(NS(=O)(=O)c3ccc(N4CC[C@@H](O)C4)s3)cc12` [LSN3213128, N-(6-Fluoro-1-oxo-1,2-dihydroisoquinolin-7-yl)-5-[(3R)-3-hydroxypyrrolidin-1-yl]thiophene-2-sulfonamide], for which the GI50 amounted to 1590 nM in experiment [1] (setting [10]); 4.8 nM in [1] (setting [11]); 4870 ± 4200 nM in experiment [2] (setting [10]); 1.6 ± 1 nM in experiment [2] (setting [11]); 6 nM in experiment [3]; 2810 ± 1220 nM in experiment [4] (setting [10]). Moreover, the GI50 in experiment [4] (setting [11]) came to 2.2 ± 2.1 nM; in experiment [5] (setting [10]) it was 3290 nM; in experiment [5] (setting [11]) it was 2.9 nM. Further, the inhibition at 0.2 µM in experiment [6] (@ 0.2 uM) was 2.14%; in [7] (@ 0.2 uM) it was -1.42%; in experiment [8] (@ 0.2 uM), -0.0712%; in experiment [9] (@ 0.2 uM), -2.09%. Also, the inhibition at 2 µM was 3.76% in experiment [6] (@ 2 uM), 3.69% in experiment [7] (@ 2 uM), 8.91% in [8] (@ 2 uM) and 9.04% in experiment [9] (@ 2 uM). For the same molecule, the inhibition at 20 µM came out at 20.3% in experiment [6] (@ 20 uM), 3.12% in [7] (@ 20 uM), 11.7% in [8] (@ 20 uM) and 51.6% in experiment [9] (@ 20 uM).
